Reference: patent publication US20240122923A1, “METHODS OF TREATING HIDRADENITIS SUPPURATIVA” (AbbVie Inc., priority 2022, published 2024)

Key:
[1] = test system: adult human subjects with moderate to severe Hidradenitis Suppurativa (HS); test: Phase 2 randomized, double-blind, placebo-controlled study of upadacitinib, efficacy incl. post-hoc analysis through week 40; format: in vivo; conditions: UPA 30 mg QD; N=47; flare = AN count increase ≥25% with minimum increase of 2
[2] = test system: adult human subjects with moderate to severe Hidradenitis Suppurativa (HS); test: as above; format: in vivo; conditions: for Pain NRS30 at Week 12, UPA - PBO Diff: UPA 30 mg vs historical PBO rate 22.5%, p=0.028; for HiSCR at Week 12, UPA - PBO Diff: UPA 30 mg vs historical PBO rate 25%, 1-sided p=0.018; for HiSCR at Week 12, % (N), stratum TNF-IR / HiSCR at Week 12, % (N), stratum Hurley Stage (III) / HiSCR at Week 12, % (N), stratum Hurley Stage (<III) / HiSCR at Week 12, % (N), stratum TNF-Naïve / HiSCR at Week 12, % (N), Overall: UPA 30 mg; for HiSCR at Week 12, % (N), stratum TNF-IR: N=12; for HiSCR at Week 12, % (N), stratum Hurley Stage (III): N=23; for HiSCR at Week 12, % (N), stratum Hurley Stage (<III): N=24; for HiSCR at Week 12, % (N), stratum TNF-Naïve: N=35; for HiSCR at Week 12, % (N), Overall: N=47
Description: This study was a Phase 2, multicenter, randomized, double-blind, parallel-group, placebo-controlled study to evaluate the efficacy and safety of upadacitinib in adult human subjects with moderate to severe Hidradenitis Suppurativa (HS).
The duration of the study was 57 weeks, including an approximately 35-day screening period followed by a 48-week double-blinded treatment period and a 30-day follow-up visit after the last dose of study drug. Subjects were randomized in a 2:1 ratio to 1 of the 2 arms as shown below: • Upadacitinib 30 mg once daily (QD) (N=40): Daily oral doses of upadacitinib 30 mg from the Baseline visit through Period 1 and Period 2. • Placebo (N=20): Placebo for upadacitinib from the Baseline visit up to the Week 12 visit (Period 1). At Week 12, subjects were switched to blinded upadacitinib 15 mg QD through Period 2.
The primary objective of this study was to assess the efficacy and safety of upadacitinib 30 mg QD in adult subjects with moderate to severe HS. The primary efficacy objective was assessed based on the achievement of HiSCR after 12 weeks treatment.
The primary endpoint was Hidradenitis Suppurativa Clinical Response (HiSCR) at Week 12, where HiSCR is defined as at least 50% reduction in the total abscess and inflammatory nodule (AN) count with no increase in abscess count and no increase in draining fistula count relative to Baseline.
The secondary endpoint was Pain Numerical Rating Scale (NRS30) at Week 12: the achievement of at least 30% reduction and at least 1 unit reduction from Baseline in NRS30 in Patient's Global Assessment of Skin Pain (PGA Skin Pain) at Week 12, among subjects with Baseline NRS≥3.
The following additional efficacy endpoints were evaluated: • 1. Experience of flare, defined as an increase in AN count of at least 25% with a minimum increase of 2 relative to Baseline • 2. Change from Baseline in Dermatology Life Quality Index (DLQI) • 3. Change from baseline in Hidradenitis Suppurativa Symptom Assessment (HSSA) • 4. Change from baseline in HS-related swelling, assessed based on the HSSA • 5. Change from baseline in HS-related odor, assessed based on the HSSA • 6. Change from baseline in HS-related worst drainage, assessed based on the HSSA
For the primary and secondary endpoints, comparisons of upadacitinib vs. placebo were made with 3 different analysis strategies, as summarized in Table 1 below:
For the additional endpoints, comparisons were made for upadacitinib vs. historical reference value of placebo, and upadacitinib vs. in-trial placebo subjects.
For categorical variables, the primary approach to handle missing data was Non-Responder Imputation [NRI] incorporating Multiple Imputation [MI]. For continuous variables, missing data was handled by Mixed-effect Model Repeat Measurement (MMRM). Missing data for long-term efficacy in Period 2 were handled based on the observed case (OC).
A post-hoc efficacy assessment through week 40 was performed in the study of Example 1. The analysis included the proportion of patients achieving ≥75% and ≥90% reduction from baseline in AN count with no increase in abscess or draining fistula count (HiSCR 75 and HiSCR 90, respectively) and the proportion of patients achieving ≥55% reduction in International HS Severity Score System endpoint (IHS4-55), which dynamically assesses inflammatory nodules, abscesses, and draining tunnels.

[3] = UPA 30 mg vs in-trial PBO, p=0.086
[4] = MI, analysis vs synthetic + in-trial PBO

## CC[C@@H]1CN(C(=O)NCC(F)(F)F)C[C@@H]1c1cnc2cnc3[nH]ccc3n12 [upadacitinib]
[1]
  Flare during Period 1, n (%): 6 (12.8%)
[2]
  Pain NRS30 at Week 12, UPA - PBO Diff: 13.9%
[2]; listed as UPA
  Pain NRS30 at Week 12, UPA - PBO Diff: Diff = 13.9%
[2]; NRI-C
  HiSCR at Week 12, UPA - PBO Diff: 13.3%
  HiSCR at Week 12, % (N), stratum TNF-IR: 41.7%
  HiSCR at Week 12, % (N), stratum Hurley Stage (III): 39.1% (N = 23)
  HiSCR at Week 12, % (N), stratum Hurley Stage (<III): 37.5% (N = 24)
[2]; NRI-C, listed as UPA
  HiSCR at Week 12, UPA - PBO Diff: Diff = 13.3%
  HiSCR at Week 12, % (N), stratum TNF-IR: 41.7% (N = 12)
[2]; UPA 30 mg vs historical PBO rate 34%, p=0.001
  Flare during Period 1, UPA - PBO Diff: Diff = −21.2
[2]; UPA 30 mg vs historical reference value −0.72, p=0.072
  Change in HSSA odor at Week 12, UPA - PBO Diff: Diff = −0.479
[2]; UPA 30 mg vs historical reference value −0.72, p=0.188
  Change in HSSA total symptom at Week 12, UPA - PBO Diff: Diff = −0.249
[2]; UPA 30 mg vs historical reference value −0.8, p=0.364
  Change in HSSA swelling at Week 12, UPA - PBO Diff: Diff = −0.131
[2]; UPA 30 mg vs historical reference value −0.89, p=0.219
  Change in HSSA worst drainage at Week 12, UPA - PBO Diff: Diff = −0.241
[2]; UPA 30 mg vs historical reference value −2.5, p=0.548
  Change in DLQI at Week 12, UPA - PBO Diff: Diff = 0.1
[2]; UPA 30 mg vs in-trial PBO (N=12), p=0.421
  Pain NRS30 at Week 12, UPA - PBO Diff (adjusted difference): 2.2%
[2]; UPA 30 mg vs in-trial PBO (N=12), p=0.421, listed as UPA
  Pain NRS30 at Week 12, UPA - PBO Diff (adjusted difference): Diff = 2.2%
[2]; UPA 30 mg vs in-trial PBO (N=21), NRI-C, p=0.087
  HiSCR at Week 12, UPA - PBO Diff (adjusted difference): 14.7%
[2]; UPA 30 mg vs in-trial PBO (N=21), NRI-C, p=0.087, listed as UPA
  HiSCR at Week 12, UPA - PBO Diff (adjusted difference): Diff = 14.7%
[2]; UPA 30 mg vs in-trial PBO, p=0.024
  Change in HSSA odor at Week 12, UPA - PBO Diff: Diff = −1.246
[2]; UPA 30 mg vs in-trial PBO, p=0.046
  Change in HSSA total symptom at Week 12, UPA - PBO Diff: Diff = −0.762
[2]; [3]
  Change in HSSA swelling at Week 12, UPA - PBO Diff: Diff = −0.795
  Change in HSSA worst drainage at Week 12, UPA - PBO Diff: Diff = −0.695
[2]; UPA 30 mg vs in-trial PBO, p=0.222
  Change in DLQI at Week 12, UPA - PBO Diff: Diff = −1.4
[2]; UPA 30 mg vs in-trial PBO, p=0.231
  Flare during Period 1, UPA - PBO Diff: Diff = −6.5
[2]; UPA 30 mg vs synthetic plus in-trial PBO (N=80), p=0.323
  Pain NRS30 at Week 12, UPA - PBO Diff (adjusted difference): 4.5% (−14.6, 23.5)
[2]; UPA 30 mg vs synthetic plus in-trial PBO (N=80), p=0.323, listed as UPA
  Pain NRS30 at Week 12, UPA - PBO Diff (adjusted difference): Diff = 4.5%
[2]; UPA 30 mg vs synthetic plus in-trial PBO (N=89), NRI-C, p=0.142
  HiSCR at Week 12, UPA - PBO Diff (adjusted difference): 9.2% (−7.6, 25.9)
[2]; UPA 30 mg vs synthetic plus in-trial PBO (N=89), NRI-C, p=0.142, listed as UPA
  HiSCR at Week 12, UPA - PBO Diff (adjusted difference): Diff = 9.2%
[2]; MI, analysis vs in-trial PBO
  HiSCR at Week 12, % (N), stratum TNF-IR: 41.7% (N = 12)
  HiSCR at Week 12, % (N), stratum Hurley Stage (III): 39.7% (N = 23)
  HiSCR at Week 12, % (N), stratum Hurley Stage (<III): 38.1% (N = 24)
  HiSCR at Week 12, % (N), stratum TNF-Naïve: 37.9% (N = 35)
  HiSCR at Week 12, % (N), Overall: 38.9% (N = 47)
[2]; [4]
  HiSCR at Week 12, % (N), stratum TNF-IR: 41.7% (N = 12)
  HiSCR at Week 12, % (N), stratum Hurley Stage (III): 40.3% (N = 23)
  HiSCR at Week 12, % (N), stratum Hurley Stage (<III): 39.0% (N = 24)
  HiSCR at Week 12, % (N), stratum TNF-Naïve: 39.0% (N = 35)
  HiSCR at Week 12, % (N), Overall: 39.6% (N = 47)
